According to patent US6852696B2, “Inhibitors of glycosaminoglycans” (The University of Texas System, priority 1999, dated 2005):
“Also recorded” adds a separate entry of the source.

Experiments:
[1] = tested on: XS52 DC; assay: Cytokine secretion by XS52 DC stimulated with HA fragments (ELISA); type: cell-based; details: 500 μg/ml; HA fragments 50 μg/ml
Description: FIGS. 5A-C. Impact of Pep-1 on HA degradation products. (FIG. 5A) 96 well plates were coated with biotinylated-HA (0.1 μg/ml) and pretreated with 500 μg/ml of Pep-1 (open circles), RP (closed circles), or PBS alone (triangles) for 3 hours. These plates were then incubated for 30 min in the presence of HAase (from bovine testis). After extensive wash, the amounts of remaining biotinylated HA on the plates were determined by addition of streptavidin-alkaline phosphatase followed by p-nitrophenyl phosphate substrate. The % HA digestion was calculated from the optical densities. The data shown are the means+/−s.e.m.from triplicate samples analyzed with a hyperbolic model. (FIG. 5B) The impact of Pep-1 on HA digestion and on cell adhesion was examined in parallel using the HA-coated plates prepared simultaneously. Pep-1, RP, or PBS alone was added to the HA-coated plates as above and their effects on HAase-mediated HA degradation and on the adhesion of ^35S-labeled BW5147 thymoma cells were compared. The data shown are the means+/−s.e.m.(n=3) of 50% inhibition doses of HAase (left) and % cell adhesion (right). […] (FIG. 5C) Low molecular weight HA fragments were prepared by sonication of HMW HA followed by overnight digestion with HAase at 37° C. […] Results are expressed as the means+/−s.e.m.from triplicate samples. […]

[2] = tested on: Langerhans cells (LC); assay: DNFB-induced LC maturation (CD86 expression by IA+ epidermal cells); type: in vivo, BALB/c mice; details: two local injections, 40 μg/injection/ear, 24 and 3 hours before DNFB
Description: FIGS. 6A-C. Impact of Pep-1 on hapten-induced LC maturation. (FIG. 6A) Epidermal cells isolated from BALB/c mice at 17 hr after topical application of 0.5% DNFB or vehicle alone were double-stained with FITC-conjugated anti-IA mAb and PE-conjugated anti-CD86 mAb. Data shown are representative two-color FACS profiles, documenting marked elevated surface expression of CD86 by IA^+ epidermal cells (i.e., LC) after DNFB application. (FIG. 6B) BALB/c mice received subcutaneous two local injections of Pep-1 or RP (40 μg/injection/ear) 24 and 3 hours before topical application of 0.5% DNFB and epidermal cells were isolated 17 hr later to examine the expression levels of CD86 on LC. […] (FIG. 6C) Graphical representation of the % CD86^+ cells/IA^+ LC from three independent experiments described in (FIG. 6B) with circles, triangles, and squares showing corresponding pairs in each experiment. Bars represent the mean values (n=3) and the asterisk indicates statistically significant difference between the Pep-1 and the RP panels (*p<0.03 by the Mann-Whitney U test).
A critical question concerns the physiological significance of the above finding. Topical application of haptens is known to trigger not only LC migration from the epidermis, but also their maturation. […]

[3] = tested on: DC-associated HA; assay: Binding of biotinylated peptide to DC surfaces; details: biotinylated form
Description: FIGS. 8B-D. Synthesis and surface expression of HA by DC. (B) XS106 DC were labeled with ^3H-glucosamine and then examined for the incorporation of hyaluronidase-sensitive radioactivities (means+/−s.e.m.; n=5) into the indicated subcellular fractions. (C) XS106 DC were incubated with biotinylated Pep-1 or RP and then with PE-conjugated streptavidin (filed histograms) (Mummert et al. J. Exp. Med. 192:769-779, 2000) or bovine testis hyaluronidase. Baseline staining levels with PE-streptavidin alone are shown with open histograms. (D) The indicated DC preparations were examined for binding of biotinylated Pep-1 (filled) and RP (open). Peptide binding to splenic DC and bone marrow-DC was examined within the CD11c^+ populations.

GAHWQFNALTVR [Pep-1]
inhibition of IL-6 secretion triggered by HA fragments [1]: inhibited the secretion of both cytokines almost completely | inhibition of TNFα secretion triggered by HA fragments [1]: inhibited the secretion of both cytokines almost completely | prevention of DNFB-induced LC maturation (CD86 up-regulation) [2]: prevented this DNFB-induced LC maturation; also recorded: is prevented | binding to other DC preparations (XS52 DC, splenic DC, bone marrow-derived DC) [3]: bound to all other tested DC preparations | binding to surfaces of XS106 DC [3]: bound to the surfaces of XS106 DC | binding to DC after hyaluronidase pretreatment ([3]; hyaluronidase pretreatment of DC): abolished almost completely
